Source: patent US20160304552A1, “MODIFIED NUCLEIC ACID MOLECULES AND USES THEREOF” (MODERNA THERAPEUTICS, INC., priority 2013, published 2016)

Experiments:
T7 RNA polymerase = T7 RNA polymerase (Escherichia phage T7, UniProt P00573); test: In vitro transcription yields of modified mRNA; format: biochemical; settings: for EPO In Vitro Transcription yield: EPO mRNA made with the modified NTP(s); for GCSF In Vitro Transcription yield: GCSF mRNA made with the modified NTP(s); for Luc In Vitro Transcription yield: Luciferase mRNA made with the modified NTP(s)
Chain of T7 RNA polymerase (P00573 whole entry): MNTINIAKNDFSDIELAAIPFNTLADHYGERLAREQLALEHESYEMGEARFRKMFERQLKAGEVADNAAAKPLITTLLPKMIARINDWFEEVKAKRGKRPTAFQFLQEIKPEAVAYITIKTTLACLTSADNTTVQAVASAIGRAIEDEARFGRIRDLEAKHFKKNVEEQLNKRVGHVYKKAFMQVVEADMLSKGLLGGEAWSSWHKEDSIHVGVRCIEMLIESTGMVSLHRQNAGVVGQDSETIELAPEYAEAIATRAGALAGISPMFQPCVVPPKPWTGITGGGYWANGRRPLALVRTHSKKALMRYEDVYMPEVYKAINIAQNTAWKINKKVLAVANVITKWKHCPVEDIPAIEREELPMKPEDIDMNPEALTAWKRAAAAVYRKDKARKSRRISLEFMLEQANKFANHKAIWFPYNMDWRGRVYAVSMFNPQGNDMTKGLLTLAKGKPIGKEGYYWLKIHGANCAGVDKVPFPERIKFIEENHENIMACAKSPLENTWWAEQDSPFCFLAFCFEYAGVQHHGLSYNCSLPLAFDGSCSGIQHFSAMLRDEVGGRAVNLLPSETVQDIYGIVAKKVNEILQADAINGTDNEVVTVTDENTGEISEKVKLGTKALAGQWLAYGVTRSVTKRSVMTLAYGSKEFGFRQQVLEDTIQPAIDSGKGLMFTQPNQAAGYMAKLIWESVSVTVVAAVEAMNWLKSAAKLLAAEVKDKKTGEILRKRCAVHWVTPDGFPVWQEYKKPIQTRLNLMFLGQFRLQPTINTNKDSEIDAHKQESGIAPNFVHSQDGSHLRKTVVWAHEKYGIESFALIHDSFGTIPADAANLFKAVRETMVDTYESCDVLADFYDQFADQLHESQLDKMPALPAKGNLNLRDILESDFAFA
Description: The in vitro transcription reaction generates mRNA containing modified nucleotides or modified RNA. The input nucleotide triphosphate (NTP) mix is made in-house using natural and unnatural NTPs.
A typical in vitro transcription reaction includes the following:
Incubation at 37° C. for 3 hr-5 hrs.
The crude IVT mix may be stored at 4° C. overnight for cleanup the next day. 1 U of RNase-free DNase is then used to digest the original template. After 15 minutes of incubation at 37° C., the mRNA is purified using Ambion's […]™ Kit (Austin, Tex.) following the manufacturer's instructions. This kit can purify up to 500 μg of RNA. Following the cleanup, the RNA is quantified using the NanoDrop and analyzed by agarose gel electrophoresis to confirm the RNA is the proper size and that no degradation of the RNA has occurred.
Modified mRNAs in TE buffer (1 μl) are used for Nanodrop UV absorbance readings to quantitate the yield of each modified mRNA from an in vitro transcription reaction (UV absorbance traces are not shown).

BJ fibroblast cells = test: Cytokine screen in BJ fibroblast cells, human CCL-5/RANTES ELISA; format: cell-based; settings: BJ fibroblasts, 500 ng modRNA, 18 h to 22 h
Description: At 2 or 3 days prior to transfection, 100,000 BJ fibroblast cells (ATCC no. CRL-2522; Manassas, Va.) were harvested by treatment with trypsin-EDTA solution (LifeTechnologies, Grand Island, N.Y.) and seeded in a total volume of 500 ul EMEM medium (supplemented with 10% FCS and 10% Glutamax, both LifeTechnologies, Grand Island, N.Y.) per well in 24-well cell culture plates (Corning, Manassas, Va.). The cells were grown at 37° C. in a 5% CO2 atmosphere overnight. On the next day, 500 ng modRNA, harboring chemical modifications on the bases or the ribose units, were diluted in 25 ul final volume of OPTI-MEM (LifeTechnologies, Grand Island, N.Y.). Lipofectamine 2000 (LifeTechnologies, Grand Island, N.Y.) was used as transfection reagent and 1.0 ul was diluted in 25 ul final volume of OPTI-MEM. After 5 min incubation at room temperature, both solutions were combined and incubated an additional 15 min at room temperature. The 50 ul were added to the 500 ul cell culture medium containing the BJ fibroblast cells. The plates were then incubated as described above.
After 18 h to 22 h incubation, cell culture supernatants were collected and centrifuged at 10,000 rcf for 2 min. The cleared supernatants were transferred and analyzed with a human IFN-beta ELISA (R&D Systems, Minneapolis, Minn.; Cat. #s 41410-2) and human CCL-5/RANTES ELISA (R&D Systems, Minneapolis, Minn.; Cat. #s SRN00B) according to the manufacturer instructions. All samples were diluted until the determined values were within the linear range of the ELISA standard curves using a BioTek Synergy H1 plate reader (BioTek, Winooski, Vt.).

HeLa cells = test: Transfection in HeLa cells, human EPO modRNA (EPO ELISA of supernatant); format: cell-based; settings: Table 22, 18 h to 22 h
Description: The day before transfection, 20.000 HeLa cells (ATCC no. CCL-2; Manassas, Va.) were harvested by treatment with Trypsin-EDTA solution (LifeTechnologies, Grand Island, N.Y.) and seeded in a total volume of 100 ul EMEM medium (supplemented with 10% FCS and 1× Glutamax) per well in a 96-well cell culture plate (Corning, Manassas, Va.). The cells were grown at 37° C. in 5% CO2 atmosphere overnight. Next day, 83 ng of Luciferase modRNA or 250 ng of human GCSF modRNA, harboring chemical modifications on the bases or the ribose units, were diluted in 10 ul final volume of OPTI-MEM (LifeTechnologies, Grand Island, N.Y.). Lipofectamine 2000 (LifeTechnologies, Grand Island, N.Y.) was used as transfection reagent and 0.2 μl were diluted in 10 ul final volume of OPTI-MEM. After 5 min incubation at room temperature, both solutions were combined and incubated additional 15 min at room temperature. Then the 20 μl were added to the 100 ul cell culture medium containing the HeLa cells. The plates were then incubated as described before.
After 18 h to 22 h incubation, cell culture supernatants of cells expressing human GCSF or human EPO were collected and centrifuged at 10.000 rcf for 2 min. The cleared supernatants were transferred and analyzed with a human GCSF-specific or EPO ELISA kit (both from R&D Systems, Minneapolis, Minn.; Cat. #s SCS50, DEP00, respectively) according to the manufacturer instructions. All samples were diluted until the determined values were within the linear range of the human GCSF or EPO ELISA standard curve.

human PBMC = test: PBMC cytokine assay, interferon-alpha production (IFN-alpha multi-subtype ELISA); format: cell-based
Description: 50 mL of human blood from three donors was received from Research Blood Components (Brighton, Mass.) in sodium heparin tubes. […] The tubes were centrifuged at 2000 rpm for 30 minutes with low acceleration and braking (Thermo, Waltham, Mass., 75004506). The tubes were removed and the buffy coat PBMC layers were gently transferred to a fresh 50 mL conical and washed with DPBS. The tubes were centrifuged at 1450 rpm for 10 minutes. The supernatant was aspirated and the PBMC pellets were resuspended and washed in 50 mL of DPBS. The tubes were centrifuged at 1450 rpm for 10 minutes. […] The cell suspensions were adjusted to a concentration of 3.0×10^6 cells/mL live cells. […] Within 30 minutes, transfection mixtures were added to each well at a volume of 50 μL per well. […] The transfection mixtures were then transferred to each of the human PBMC plates at 50 μL per well (6 wells per mRNA sample). The plates were then incubated at 37° C. […] In order to harvest the supernatant, plates were centrifuged at 1450 rpm for 5 min in a swinging plate rotor. The supernatant of 6 wells transfected with the same mRNA was carefully harvested and pooled in a single well of a fresh 96-well plate. Supernatants were either frozen or used fresh until ELISA analysis was done. The ability of unmodified and modified mRNA to trigger innate immune recognition as measured by interferon-alpha production.

Compound | EPO In Vitro Transcription yield (T7 RNA polymerase) [mg] | GCSF In Vitro Transcription yield (T7 RNA polymerase) [mg] | Luc In Vitro Transcription yield (T7 RNA polymerase) [mg] | Luc mRNA RANTES (BJ fibroblast cells) [pg/mL] | hEpo mRNA RANTES (BJ fibroblast cells) [pg/mL] | hGCSF mRNA RANTES (BJ fibroblast cells) [pg/mL] | further results
O=c1[nH]c(=O)n([C@@H]2O[C@H](COP(=O)(O)OP(=O)(O)OP(=O)(O)O)C(O)C2O)cc1C(F)(F)F (some centres unmarked) [00901013002 (352), 5-Trifluoromethyl-UTP] | 0.3830 | 0.5102 | 0.3662 |  |  |  | 
5-hydroxymethyl-cytidine TP, ATP, GTP, UTP |  |  |  | 9826 | 2160 | 9063 | 
2-thio-pseudouridine TP, ATP, GTP, CTP |  |  |  | 1706 | 5440 | 2106 | 
pseudouridine TP, ATP, GTP, CTP |  |  |  | 4600 | 5490 | 5016 | 
Cn1c(N)nc2c(ncn2[C@@H]2O[C@H](COP(=O)(O)OP(=O)(O)OP(=O)(O)O)C(O)C2O)c1=O (some centres unmarked) [Compound 00901012008, N1-Me-GTP] | 0.0032 | 0.0050 | 0.0059 |  |  |  | 
N4-acetyl-cytidine TP, ATP, GTP, UTP |  |  |  | 2546 | 4360 | 4103 | 
1-methyl-pseudouridine TP, ATP, GTP, CTP |  |  |  | 5473 | 8780 | 4816 | 
Nc1ncnc2c1nnn2[C@@H]1O[C@H](COP(=O)(O)OP(=O)(O)OP(=O)(O)O)C(O)C1O (some centres unmarked) [00901011003 (377), 8-Aza-ATP] | 0.0055 | 0.03 | 0.0262 |  |  |  | 
5-bromocytidine TP, ATP, GTP, UTP |  |  |  | 1380 | 1343 | 1900 | 
5-methoxy-uridine TP, ATP, GTP, UTP |  |  |  | 33.33 | -6.66 | -6.66 | 
Cn1c(=O)[nH]cc([C@@H]2O[C@H](COP(=O)(O)OP(=O)(O)OP(=O)(O)O)C(O)C2O)c1=O (some centres unmarked) [00901015187 (236), 3-Methyl-pseudo-UTP] | 0.0125 | 0.0120 | 0.0152 |  |  |  | 
COC(=O)Cc1cn([C@@H]2O[C@H](COP(=O)(O)OP(=O)(O)OP(=O)(O)O)C(O)C2O)c(=O)[nH]c1=O (stereo in doubt) [00901013005 (358), 5-Methoxy carbonyl methyl-UTP] | 0.6432 | 0.6475 | 0.8825 |  |  |  | Epo Expression (HeLa cells): 8333 pg/mL
Nc1nc(N)c2ncn([C@@H]3O[C@H](COP(=O)(O)OP(=O)(O)OP(=O)(O)O)C(O)C3O)c2n1 (some centres unmarked) [03601011002 (154), 2-Amino-ATP] | 0.2612 | 0.1567 | 0.1215 |  |  |  | 
CNCc1cn([C@@H]2O[C@H](COP(=O)(O)OP(=O)(O)OP(=O)(O)O)C(O)C2O)c(=O)[nH]c1=O (some centres unmarked) [00901013006 (353), 5-Methylamino methyl-UTP] | 0.3060 | 0.3494 | 0.2914 |  |  |  | 
O=c1[nH]c(=O)n(CC(F)(F)F)cc1[C@@H]1O[C@H](COP(=O)(O)OP(=O)(O)OP(=O)(O)O)C(O)C1O (some centres unmarked) [03601015005 (175), 1-(2,2,2-Trifluoroethyl) pseudo-UTP] | 0.3379 | 0.2332 | 0.4388 |  |  |  | 
Cn1c(=N)ccn([C@@H]2O[C@H](COP(=O)(O)OP(=O)(O)OP(=O)(O)O)C(O)C2O)c1=O (some centres unmarked) [Compound 00901014006, 3-Methyl-CTP] | 0.0060 | 0.0141 | 0.0068 |  |  |  | 
Nc1ccn([C@@H]2O[C@H](COP(=O)(O)OP(=O)(O)OP(=O)(O)O)C(O)C2O)c(=S)n1 (some centres unmarked) [Compound 00901014010, 2-Thio-CTP] | 0.0061 | 0.0076 | 0.0073 |  |  |  | 
O=c1[nH]c(=S)ccn1[C@@H]1O[C@H](COP(=O)(O)OP(=O)(O)OP(=O)(O)O)C(O)C1O (some centres unmarked) [00901013011 (2), 4-Thio-UTP] | 0.0416 | 0.0759 | 0.1625 |  |  |  | 
CNc1ccn([C@@H]2O[C@H](COP(=O)(O)OP(=O)(O)OP(=O)(O)O)C(O)C2O)c(=O)n1 (stereo in doubt) [00901014004 (346), N4-methyl CTP] | 1.154 | 0.9028 | 1.124 |  |  |  | Epo Expression (HeLa cells): 90280 pg/mL
5-trifluromethylcytidine TP, ATP, GTP, UTP |  |  |  | 2303 | 7593 | 4203 | 
Nc1nc(=O)n([C@@H]2O[C@H](COP(=O)(O)OP(=O)(O)OP(=O)(O)O)C(O)C2O)cc1C(F)(F)F (some centres unmarked) [00901016002 (351), 5-Trifluoromethyl-CTP] |  |  |  |  |  |  | interferon-alpha concentration in PBMC supernatant (human PBMC; Luc mRNA, 1st value in cell): 6670 pg/mL; interferon-alpha concentration in PBMC supernatant (human PBMC; Luc mRNA, 2nd value in cell): 2190 pg/mL; interferon-alpha concentration in PBMC supernatant (human PBMC; Luc mRNA, 3rd value in cell): 6410 pg/mL; interferon-alpha concentration in PBMC supernatant (human PBMC; hEPO mRNA, 1st value in cell): 4440 pg/mL; interferon-alpha concentration in PBMC supernatant (human PBMC; hEPO mRNA, 2nd value in cell): 3100 pg/mL; interferon-alpha concentration in PBMC supernatant (human PBMC; hEPO mRNA, 3rd value in cell): 1412.5 pg/mL; interferon-alpha concentration in PBMC supernatant (human PBMC; hGCSF mRNA, 1st value in cell): 6253.33 pg/mL; interferon-alpha concentration in PBMC supernatant (human PBMC; hGCSF mRNA, 2nd value in cell): 6725 pg/mL; interferon-alpha concentration in PBMC supernatant (human PBMC; hGCSF mRNA, 3rd value in cell): 6280 pg/mL
